Assays:
[1] = molecular target: recombinant N-terminal PMS2 (residues 1-365) (Homo sapiens (Human), UniProt P54278); test: Fluorescence polarisation assay for PMS2; type: binding; conditions: FP probe displacement; 10 nM N-terminal PMS2, 5 nM probe compound, read after 1 hour
Protocol: Fluorescence Polarisation Assay for PMS2
(§1) Test compounds, as 10 mM DMSO stocks, were dispensed into a Black Fluotrac 200 384 well medium binding plate (Greiner Bio-One, item number 781076) using a Labcyte Echo acoustic liquid handler. For single point screening, test compounds were added to wells in columns 1-22 whilst DMSO was added to wells in columns 23 and 24 in order to normalise the plate. For potency determination, serial dilutions of test compounds were added to wells in columns 3-22 and DMSO volume was normalised across the plate.
20 μL assay buffer was added to all wells in columns 1 and 24 (column 24 only for single point screening) using a MultiDrop Combi (ThermoFisher). Plates were centrifuged for 1 minute at 250×g and were incubated at room temperature for 30 minutes prior to the addition of 20 μL of 2×([…]) of 5-((5-(4-((2-(2,4-dihydroxy-5-isopropylbenzoyl)isoindolin-5-yl)methyl)piperazin-1-yl)pentyl)carbamoyl)-2-(6-(dimethylamino)-3-(dimethyliminio)-3H-xanthen-9-yl)benzoate (referred to hereinafter as “probe compound”) in assay buffer (prepared from a 100 μM DMSO stock) with a MultiDrop Combi (ThermoFisher). The final concentration of N-terminal PMS2 was 10 nM and the final concentration of probe compound was 5 nM.
(§2) Compound plates were centrifuged for 1 minute at 250×g for 1 minute and were incubated at room temperature for 1 hour before being read on a PheraStar FSX (fitted with 384-well aperture spoon and 540 590 590 FP optic module). The gain and focus were adjusted before each plate was read so that the polarisation of a no enzyme control (column 24) was equal to 35 mP. Data were normalised against the no inhibitor controls (column 23) and no enzyme controls (column 24).

[2] = molecular target: recombinant N-terminal MLH1 (residues 15-340) (Homo sapiens (Human), UniProt P40692); test: Fluorescence polarisation assay for MLH1 (protocol for all Examples except Examples 64, 76, 90 and 95); type: binding; conditions: FP probe displacement; 100 nM N-terminal MLH1, 5 nM probe compound, read after 15 minutes; all Examples except 64, 76, 90 and 95
Sequence of recombinant N-terminal MLH1 (residues 15-340) (P40692 15-340): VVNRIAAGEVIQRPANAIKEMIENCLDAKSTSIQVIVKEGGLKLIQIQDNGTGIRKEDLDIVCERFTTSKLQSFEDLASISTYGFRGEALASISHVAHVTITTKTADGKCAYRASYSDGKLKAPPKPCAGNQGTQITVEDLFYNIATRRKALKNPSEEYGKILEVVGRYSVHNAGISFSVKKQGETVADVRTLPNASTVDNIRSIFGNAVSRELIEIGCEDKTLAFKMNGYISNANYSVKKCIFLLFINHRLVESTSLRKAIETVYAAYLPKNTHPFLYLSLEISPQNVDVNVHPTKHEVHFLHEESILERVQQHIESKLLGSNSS
Protocol: Fluorescence Polarisation Assay for MLH1 (Protocol for all Examples Except Examples 64, 76, 90 and 95)
as §1
20 μL assay buffer was added to all wells in columns 1 and 24 (column 24 only for single point screening) using a MultiDrop Combi (ThermoFisher). Plates were centrifuged for 1 minute at 250×g and were incubated at room temperature for 30 minutes prior to the addition of 20 μL of 2×(10 nM) of 5-((5-(4-((2-(2,4-dihydroxy-5-isopropylbenzoyl)isoindolin-5-yl)methyl)piperazin-1-yl)pentyl)carbamoyl)-2-(6-(dimethylamino)-3-(dimethyliminio)-3H-xanthen-9-yl)benzoate (referred to hereinafter as “probe compound”) in assay buffer (prepared from a 100 μM DMSO stock) with a MultiDrop Combi (ThermoFisher). The final concentration of N-terminal MLH1 was 100 nM and the final concentration of probe compound was 5 nM.
as §2, with “15 minutes” for “1 hour”

Sequence of recombinant N-terminal PMS2 (residues 1-365) (P54278 1-365): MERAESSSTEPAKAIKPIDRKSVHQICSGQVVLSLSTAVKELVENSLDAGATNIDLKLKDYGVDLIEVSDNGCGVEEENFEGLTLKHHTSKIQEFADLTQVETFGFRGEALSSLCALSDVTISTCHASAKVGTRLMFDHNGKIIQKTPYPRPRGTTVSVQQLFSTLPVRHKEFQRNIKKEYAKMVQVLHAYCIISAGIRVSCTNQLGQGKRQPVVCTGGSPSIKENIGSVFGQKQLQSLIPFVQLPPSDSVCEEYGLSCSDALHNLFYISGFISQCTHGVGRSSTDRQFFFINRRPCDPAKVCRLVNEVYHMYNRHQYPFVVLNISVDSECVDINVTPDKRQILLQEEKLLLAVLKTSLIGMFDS

IC50 [1] [µM]	IC50 [2] [µM]	SMILES
1 to 10	> 10	Cc1c(O)cc(O)c(C(=O)N2Cc3ccccc3C2CO)c1OCc1ccccc1 (stereo not shown) [Example 63, (2-(benzyloxy)-4,6-dihydroxy-3-methylphenyl)(1-(hydroxymethyl)isoindolin-2-yl)methanone]
> 10	> 10	Cc1c(O)cc(O)c(C(=O)N2CCc3ccccc3C2CO)c1OCc1ccccc1 (stereo not shown) [Example 65, (2-(Benzyloxy)-4,6-dihydroxy-3-methylphenyl)(1-(hydroxymethyl)-3,4-dihydroisoquinolin-2(1H)-yl)methanone]
1 to 10	> 10	Cc1c(O)cc(O)c(C(=O)N2Cc3ccccc3C(CO)C2)c1OCc1ccccc1 (stereo not shown) [Example 66, (2-(Benzyloxy)-4,6-dihydroxy-3-methylphenyl)(4-(hydroxymethyl)-3,4-dihydroisoquinolin-2(1H)-yl)methanone]
< 1	> 10	Cc1c(O)cc(O)c(C(=O)N2Cc3ccc(CN(C)C)cc3C2)c1OCc1ccccc1 [Example 68, (2-(Benzyloxy)-4,6-dihydroxy-3-methylphenyl)(5-((dimethylamino)methyl)isoindolin-2-yl)methanone]
< 1	> 10	Cc1c(O)cc(O)c(C(=O)N2Cc3ccc(CN4CCOCC4)cc3C2)c1OCc1ccccc1 [Example 69, (2-(Benzyloxy)-4,6-dihydroxy-3-methylphenyl)(5-(morpholinomethyl)isoindolin-2-yl)methanone]
1 to 10	> 10	Cc1c(O)cc(O)c(C(=O)N2CCc3ccccc32)c1OCc1ccccc1 [Example 70, (2-(Benzyloxy)-4,6-dihydroxy-3-methylphenyl)(indolin-1-yl)methanone]
1 to 10	1 to 10	O=C(c1c(O)cc(O)cc1OCc1ccccc1)N1CCc2ccccc21 [Example 71, (2-(Benzyloxy)-4,6-dihydroxyphenyl)(indolin-1-yl)methanone]
1 to 10	> 10	Cc1c(O)cc(O)c(C(=O)N2CCCc3ccccc32)c1OCc1ccccc1 [Example 72, (2-(Benzyloxy)-4,6-dihydroxy-3-methylphenyl)(3,4-dihydroquinolin-1(2H)-yl)methanone]
1 to 10	1 to 10	O=C(c1c(O)cc(O)cc1OCc1ccccc1)N1CCCc2ccccc21 [Example 73, (2-(Benzyloxy)-4,6-dihydroxyphenyl)(3,4-dihydroquinolin-1(2H)-yl)methanone]
< 1	> 10	Cc1c(O)cc(O)c(C(=O)N2Cc3ccncc3C2)c1OCc1ccccc1 [Example 74, (2-(Benzyloxy)-4,6-dihydroxy-3-methylphenyl)(1,3-dihydro-2H-pyrrolo[3,4-c]pyridin-2-yl)methanone]
< 1	> 10	Cc1c(O)cc(O)c(C(=O)N2Cc3cccc(CN4CCN(C)CC4)c3C2)c1OCc1ccccc1 [Example 75, (2-(Benzyloxy)-4,6-dihydroxy-3-methylphenyl)(4-((4-methylpiperazin-1-yl)methyl)isoindolin-2-yl)methanone]
< 1	> 10	Cc1c(O)cc(O)c(C(=O)N2CCc3ccc(C(=O)N(C)C)cc3C2)c1OCc1ccccc1 [Example 77, 2-(2-(Benzyloxy)-4,6-dihydroxy-3-methylbenzoyl)-N,N-dimethyl-1,2,3,4-tetrahydroisoquinoline-7-carboxamide]
< 1	> 10	Cc1c(O)cc(O)c(C(=O)N2CCc3cc(C(=O)N(C)C)ccc3C2)c1OCc1ccccc1 [Example 78, 2-(2-(benzyloxy)-4,6-dihydroxy-3-methylbenzoyl)-N,N-dimethyl-1,2,3,4-tetrahydroisoquinoline-6-carboxamide]
< 1	> 10	Cc1c(O)cc(O)c(C(=O)N2Cc3cccc(NC4CCOC4)c3C2)c1OCc1ccccc1 (stereo not shown) [Example 79, (2-(Benzyloxy)-4,6-dihydroxy-3-methylphenyl)(4-((tetrahydrofuran-3-yl)amino)isoindolin-2-yl)methanone]
< 1	1 to 10	Cc1c(O)cc(O)c(C(=O)N2Cc3cccc(NC4COC4)c3C2)c1OCc1ccccc1 [Example 80, (2-(Benzyloxy)-4,6-dihydroxy-3-methylphenyl)(4-(oxetan-3-ylamino)isoindolin-2-yl)methanone]
< 1	> 10	Cc1c(O)cc(O)c(C(=O)N2Cc3cccc(N4CCCC(O)C4)c3C2)c1OCc1ccccc1 (stereo not shown) [Example 81, (2-(Benzyloxy)-4,6-dihydroxy-3-methylphenyl)(4-(3-hydroxypiperidin-1-yl)isoindolin-2-yl)methanone]
< 1	> 10	Cc1c(O)cc(O)c(C(=O)N2Cc3cccc(C#N)c3C2)c1OCc1ccccc1 [Example 82, 2-(2-(benzyloxy)-4,6-dihydroxy-3-methylbenzoyl)isoindoline-4-carbonitrile]
< 1	> 10	Cc1c(O)cc(O)c(C(=O)N2Cc3ccc(C(=O)N(C)C)cc3C2)c1OCc1ccccc1 [Example 83, 2-(2-(Benzyloxy)-4,6-dihydroxy-3-methylbenzoyl)-N,N-dimethylisoindoline-5-carboxamide]
< 1	> 10	CNC(=O)c1ccc2c(c1)CN(C(=O)c1c(O)cc(O)c(C)c1OCc1ccccc1)C2 [Example 84, 2-(2-(Benzyloxy)-4,6-dihydroxy-3-methylbenzoyl)-N-methylisoindoline-5-carboxamide]
< 1	> 10	Cc1c(O)cc(O)c(C(=O)N2Cc3cccc(C(=O)N(C)C)c3C2)c1OCc1ccccc1 [Example 85, 2-(2-(Benzyloxy)-4,6-dihydroxy-3-methylbenzoyl)-N,N-dimethylisoindoline-4-carboxamide]
1 to 10	> 10	CNC(=O)c1cccc2c1CN(C(=O)c1c(O)cc(O)c(C)c1OCc1ccccc1)C2 [Example 86, 2-(2-(benzyloxy)-4,6-dihydroxy-3-methylbenzoyl)-N-methylisoindoline-4-carboxamide]
< 1	> 10	CC(=O)Nc1cccc2c1CN(C(=O)c1c(O)cc(O)c(C)c1OCc1ccccc1)C2 [Example 87, N-(2-(2-(benzyloxy)-4,6-dihydroxy-3-methylbenzoyl)isoindolin-4-yl)acetamide]
< 1	> 10	Cc1c(O)cc(O)c(C(=O)N2Cc3cccc(OCC4CNC4)c3C2)c1OCc1ccccc1 [Example 89, (4-(Azetidin-3-yl methoxy)isoindolin-2-yl) (2-(benzyloxy)-4,6-dihydroxy-3-methylphenyl) methanone]
< 1	> 10	Cc1c(O)cc(O)c(C(=O)N2Cc3cccc(N4CC(C#N)C4)c3C2)c1OCc1ccccc1 [Example 91, 1-(2-(2-(Benzyloxy)-4,6-dihydroxy-3-methylbenzoyl)isoindolin-4-yl)azetidine-3-carbonitrile]
< 1	> 10	COc1c(C)c(O)cc(O)c1C(=O)N1Cc2ccc(CN3CCN(C)CC3)cc2C1 [Example 92, (4,6-Dihydroxy-2-methoxy-3-methylphenyl)(5-((4-methylpiperazin-1-yl)methyl)isoindolin-2-yl)methanone]

SMILES	IC50 [1] [µM]	IC50 [2] [µM]
Cc1c(O)cc(O)c(C(=O)N2Cc3cccc(OC4CCOC4)c3C2)c1OCc1ccccc1 (stereo not shown) [Example 88]	< 1	> 10

From patent US12552758B2, “Inhibitors of MLH1 and/or PMS2 for cancer treatment” (NeoPhore Limited, priority 2020, dated 2026)
